# Assay results as given in US20260356803A1, “Nicotinamide derivatives” (Board of Regents, The University of Texas System, priority 2024, published 2026).
# Test system: iHCT116 cells
# Assay: Forward genetics resistance selection (IAA-inducible mutagenesis)
# Type: cell-based
# Conditions: IAA treated (Mut-on)
# Source text: Second, we screened for resistance to 9 in iHCT116 cells, a system that uses inducible mutagenesis and forward genetics to find compound-resistant mutations and thus can reveal both loss of function and gain of function alleles that suppress activity. The iHCT116 system is a barcoded cell line in which we temporally control mutagenesis by the addition of indole acetic acid (IAA) mediated degradation of the mismatch repair protein MLH1.^12 MLN4924 is a small molecule toxin that we use as a positive control to verify that IAA treatment leads to increased mutations. By degrading MLH1 and increasing the overall mutation rate, IAA treatment increases the frequency of UBA3 mutations, leading to a higher rate of MLN4924 resistance. […] Having previously established a relationship between either NMNAT1 levels or NAMPT activity and compound resistance, we analyzed the levels of both enzymes in multiple resistant clones that harbored unique barcode sequences. […] To test whether reduced NMNAT1 levels in these clones contributed to resistance, we ectopically expressed NMNAT1 in either the parental cells or a representative resistant clone with low NMNAT1 expression.
row,SMILES,resistant clones [clones]
1,"NS(=O)(=O)OC[C@@H]1C[C@@H](n2ccc3c(N[C@H]4CCc5ccccc54)ncnc32)C[C@@H]1O [MLN4924, reference compound]",33

# Same assay, conditions: vehicle (Mut-off)
row,SMILES,resistant clones
1,"NS(=O)(=O)OC[C@@H]1C[C@@H](n2ccc3c(N[C@H]4CCc5ccccc54)ncnc32)C[C@@H]1O [MLN4924, reference compound]",one

# Test system: IMPDH
# Assay: Guanosine co-titration rescue
# Type: cell-based
# Conditions: guanosine co-titrated
# Source text: Given that vacor, 3-AP, and compound 21 are all metabolized to toxic, NAD-like derivatives through NAMPT and NMNAT, we hypothesized that their anti-cancer activity may also depend on SARM1. To test this, we compared the toxic effects of vacor, 3-AP, and 9 in either wild type cells or cells in which we used CRISPR to silence SARM1. […] These observations highlight that even though these different scaffolds are toxified through the same mechanism, the resulting metabolites may have different activities. We next co-titrated guanosine, which is known to rescue tiazofurin by bypassing IMPDH in guanylate synthesis, with each of the above small molecules. […] To test this hypothesis, we set up in vitro reactions with different combinations of 9, NAMPT and NMNAT. After incubation, metabolites were extracted, reconstituted in aqueous solution and then co-incubated with an established IMPDH2 enzyme assay.
row,SMILES,guanosine rescue of toxicity
1,"NC(=O)c1csc([C@@H]2O[C@H](CO)[C@@H](O)[C@H]2O)n1 [tiazofurin, reference compound]",guanosine rescue

# Test system: human MPNST cell line S462
# Assay: S462 cell viability (CellTiter-Glo, 72 h)
# Type: cell-based
# Conditions: 10% FBS Nam-free DMEM
# Source text: This similarity, in addition to the scaffold's particular sensitivity to modifications around the pyridinyl ring led us to hypothesize that the activity of compounds 1 and 9 may depend on the concentration of Nam in the media. To test this hypothesis, we analyzed the activity of both compounds in media supplemented with increasing concentrations of Nam. […] Given that Nam inhibited compound activity, we considered Nam concentrations in basal culture conditions (DMEM supplemented with 10% fetal bovine serum or FBS) as compared to physiological levels. Nam levels in human serum are estimated to be in the 4 μM range.^5 In contrast, DMEM alone contains […] of Nam and the concentration in 10% FBS is expected to range between 0.574-1.56 μM.^6 To more closely reflect physiologic levels of Nam, we evaluated the activity of these compounds in cells grown in DMEM lacking Nam (Nam-free DMEM), so that the only exogenous Nam derives from 10% FBS. […] These observations indicate that the potency of these compounds is in the nanomolar range when tested in the presence of physiological levels of Nam.
# We thus re-assessed the structure activity relationship of compound 21 analogs in Nam-free DMEM supplemented with or without 100 μM Nam (see appendix below: Synthesis, characterization and activity of micromolar and nanomolar active nicotinamide derivatives). […] Particularly notable, even in Nam-depleted conditions, all active analogs retained the same 3-pyridinyl ring as Nam, reinforcing the relationship between structural resemblance to Nam and compound efficacy.
# In 96-well assay plates (Corning #2903), 2,000 cells were plated per well in 100 μL of medium and allowed to adhere overnight. The next day, compounds or Nam suspended in DMSO were dispensed to the assayed wells using a D300e Digital Dispenser (Tecan). All wells were normalized to 0.5% DMSO. 72 hours after incubation at 37 °C in 5% CO2, cell viability was assayed using an ATP-based luminescent viability assay, CellTiter-Glo (Promega #G8462). CellTiter-Glo substrate was mixed 1:1 with phosphate-buffered saline (PBS) supplemented with 1% Triton X-100, and 40 μL of this mixture was added to the assay wells. After the plates were shaken on a microplate shaker for 10 minutes at room temperature, luminescence was recorded using a Synergy 2 Microplate Reader or Cytation 5 plate reader (BioTek). In Prism 9 software (GraphPad), ten-point dose response curves were plotted with baseline-correction to the vehicle control well, and IC50 values were calculated by curve fitting using asymmetric (five parameter), least squares fit.
row,SMILES,toxicity to S462
1,"NC(=O)c1csc([C@@H]2O[C@H](CO)[C@@H](O)[C@H]2O)n1 [tiazofurin, reference compound]",toxic to S462

# Same assay, conditions: 10% FBS Nam-free DMEM, comparison of vacor, 3-AP, tiazofurin and 9
row,SMILES,rescue by nicotinamide
1,"NC(=O)c1csc([C@@H]2O[C@H](CO)[C@@H](O)[C@H]2O)n1 [tiazofurin, reference compound]",all compounds except tiazofurin were rescued by nicotinamide

# Same assay, conditions: S462, commercial DMEM; highest dose tested 50 μM; read-out: IC50
row,SMILES,IC50 [µM]
1,"O=C(Nc1ccccc1)c1cccs1 [Compound 2, N-Phenylthiophene-2-carboxamide]",> 50
2,"O=C(Nc1ccccn1)c1cccs1 [Compound 3, N-(Pyridin-2-yl)thiophene-2-carboxamide]",> 50
3,"O=C(Nc1ccncc1)c1cccs1 [Compound 4, N-(Pyridin-4-yl)thiophene-2-carboxamide]",> 50

# Same assay, conditions: [nicotinamide] 0 μM, Nam-free DMEM; read-out: IC50 (μM), [nicotinamide] 0 μM
row,SMILES,IC50 [µM]
1,Cc1csc(C(=O)Nc2cccnc2)c1,0.302
2,O=C(Nc1cccnc1)c1ccccc1,0.064
3,O=C(Nc1cccnc1)c1ccccn1,0.992
4,O=C(Nc1cccnc1)c1ccco1,0.022
5,O=C(Nc1cccnc1)c1cccnn1,18
6,O=C(Nc1cccnc1)c1ccoc1,0.948
7,O=C(Nc1cccnc1)c1ccc[nH]1,0.08
8,O=C(Nc1cccnc1)c1ccc(Br)s1,0.234
9,O=C(Nc1cccnc1)c1ncc[nH]1,22.4
10,O=C(Nc1cccnc1)c1ccc(Cl)cc1,0.921
11,O=C(Nc1cccnc1)c1cc2ccccc2s1,0.249
12,COc1ccc(C(=O)Nc2cccnc2)cc1,0.686
13,O=C(Nc1cccnc1)c1nccs1,1.88
14,O=C(Nc1cccnc1)c1ccc(C(F)(F)F)cc1,0.771
15,O=C(Nc1cccnc1)c1ncco1,19.5
16,Cc1ccsc1C(=O)Nc1cccnc1,1.08
17,N#Cc1ccc(C(=O)Nc2cccnc2)s1,0.075
18,Cc1ccc(C(=O)Nc2cccnc2)s1,0.184

row,SMILES,IC50 [µM]
1,O=C(Nc1cccnc1)c1cc2c(s1)CCCC2,0.763
2,COc1cccc(C(=O)Nc2cccnc2)c1,2.36
3,Cc1ccccc1C(=O)Nc1cccnc1,14.7
4,O=C(Nc1cnc(Cl)c(Cl)c1)c1cccs1,8.76
5,O=C(Nc1ccon1)c1cccnc1,2.73
6,O=C(Nc1ccc(Br)nc1)c1cccs1,8.5
7,O=C(Nc1ccccc1)c1cccnc1,0.024
8,N#Cc1ccc(NC(=O)c2cccs2)cn1,2.78
9,O=C(Nc1cc(-c2ccccc2)cs1)c1cccnc1,2.46
10,CCOC(=O)c1ccc(NC(=O)c2cccnc2)s1,0.23
11,N#Cc1c(NC(=O)c2cccnc2)sc2c1CCC2,5.97
12,Cc1cccc(C(=O)Nc2cccnc2)c1,35.7
13,N#Cc1c(NC(=O)c2cccnc2)sc2c1CCCC2,4.74
14,O=C(Nc1nc2cccnc2s1)c1cccnc1,23.9
15,O=C(Nc1cccs1)c1cccnc1 [drawing 72],0.006
16,O=C(Nc1nc2ccccc2s1)c1cccnc1 [drawing 105],0.623
17,O=C(Nc1nc2ccccc2s1)c1cccnc1 [drawing 111],36.2

# Same assay, conditions: [nicotinamide] 33 μM; read-out: IC50 (μM), [nicotinamide] 33 μM
row,SMILES,IC50 [µM]
1,Cc1csc(C(=O)Nc2cccnc2)c1,> 50
2,O=C(Nc1cccnc1)c1ccccc1,16.8
3,O=C(Nc1cccnc1)c1ccccn1,> 50
4,O=C(Nc1cccnc1)c1ccco1,> 50
5,O=C(Nc1cccnc1)c1cccnn1,> 50
6,O=C(Nc1cccnc1)c1ccoc1,> 50
7,Cc1ncsc1C(=O)Nc1cccnc1,> 50
8,O=C(Nc1cccnc1)c1ccc[nH]1,> 50
9,O=C(Nc1cccnc1)c1ccc(Br)s1,15.6
10,O=C(Nc1cccnc1)c1ncc[nH]1,> 50
11,O=C(Nc1cccnc1)c1ccc(Cl)cc1,> 50
12,O=C(Nc1cccnc1)c1cc2ccccc2s1,21.4
13,COc1ccc(C(=O)Nc2cccnc2)cc1,> 50
14,O=C(Nc1cccnc1)c1nccs1,> 50
15,O=C(Nc1cccnc1)c1ccc(C(F)(F)F)cc1,> 50
16,O=C(Nc1cccnc1)c1ncco1,> 50
17,Cc1ccsc1C(=O)Nc1cccnc1,> 50

row,SMILES,IC50 [µM]
1,N#Cc1ccc(C(=O)Nc2cccnc2)s1,14.2
2,Cc1ccc(C(=O)Nc2cccnc2)s1,> 50
3,O=C(Nc1cccnc1)c1cc2c(s1)CCCC2,> 50
4,COc1cccc(C(=O)Nc2cccnc2)c1,> 50
5,O=C(Nc1cncc(F)c1)c1cccs1,> 50
6,Cc1ccccc1C(=O)Nc1cccnc1,> 50
7,N#Cc1cncc(NC(=O)c2cccs2)c1,> 50
8,O=C(Nc1cnc(Cl)c(Cl)c1)c1cccs1,> 50
9,O=C(Nc1ccon1)c1cccnc1,> 50
10,O=C(Nc1ccc(Br)nc1)c1cccs1,> 50
11,O=C(Nc1ccccc1)c1cccnc1,13.1
12,N#Cc1ccc(NC(=O)c2cccs2)cn1,> 50
13,CCOC(=O)c1ccsc1NC(=O)c1cccnc1,> 50
14,Cc1cccc(C(=O)Nc2cccnc2)c1,> 50
15,O=C(Nc1nc2cccnc2s1)c1cccnc1,> 50
16,O=C(Nc1cccs1)c1cccnc1 [drawing 72],1.2
17,O=C(Nc1nc2ccccc2s1)c1cccnc1 [drawing 111],> 50

# Same assay, conditions: [nicotinamide] 100 μM; read-out: IC50 (μM), [nicotinamide] 100 μM
row,SMILES,IC50 [µM]
1,Cc1csc(C(=O)Nc2cccnc2)c1,> 50
2,O=C(Nc1cccnc1)c1ccccc1,> 50
3,O=C(Nc1cccnc1)c1ccccn1,> 50
4,O=C(Nc1cccnc1)c1ccco1,> 50
5,O=C(Nc1cccnc1)c1cccnn1,> 50
6,O=C(Nc1cccnc1)c1ccoc1,> 50
7,Cc1ncsc1C(=O)Nc1cccnc1,> 50
8,O=C(Nc1cccnc1)c1ccc[nH]1,> 50
9,O=C(Nc1cccnc1)c1ccc(Br)s1,> 50
10,O=C(Nc1cccnc1)c1ncc[nH]1,> 50
11,O=C(Nc1cccnc1)c1ccc(Cl)cc1,> 50
12,O=C(Nc1cccnc1)c1cc2ccccc2s1,> 50
13,COc1ccc(C(=O)Nc2cccnc2)cc1,> 50
14,O=C(Nc1cccnc1)c1nccs1,> 50
15,O=C(Nc1cccnc1)c1ccc(C(F)(F)F)cc1,> 50
16,O=C(Nc1cccnc1)c1ncco1,> 50
17,Cc1ccsc1C(=O)Nc1cccnc1,> 50
18,N#Cc1ccc(C(=O)Nc2cccnc2)s1,> 50
19,Cc1ccc(C(=O)Nc2cccnc2)s1,> 50
20,O=C(Nc1cccnc1)c1cc2c(s1)CCCC2,> 50
21,COc1cccc(C(=O)Nc2cccnc2)c1,> 50

row,SMILES,IC50 [µM]
1,O=C(Nc1cncc(F)c1)c1cccs1,> 50
2,Cc1ccccc1C(=O)Nc1cccnc1,> 50
3,N#Cc1cncc(NC(=O)c2cccs2)c1,> 50
4,O=C(Nc1cnc(Cl)c(Cl)c1)c1cccs1,42.4
5,O=C(Nc1ccon1)c1cccnc1,> 50
6,O=C(Nc1ccc(Br)nc1)c1cccs1,> 50
7,O=C(Nc1ccccc1)c1cccnc1,> 50
8,N#Cc1ccc(NC(=O)c2cccs2)cn1,> 50
9,CCOC(=O)c1ccsc1NC(=O)c1cccnc1,> 50
10,O=C(Nc1cc(-c2ccccc2)cs1)c1cccnc1,39.6
11,Cc1sc(NC(=O)c2cccnc2)c(C#N)c1C,> 50
12,CCOC(=O)c1ccc(NC(=O)c2cccnc2)s1,> 50
13,Cc1cc(C#N)c(NC(=O)c2cccnc2)s1,> 50
14,N#Cc1c(NC(=O)c2cccnc2)sc2c1CCC2,6.1
15,Cc1cccc(C(=O)Nc2cccnc2)c1,> 50
16,N#Cc1c(NC(=O)c2cccnc2)sc2c1CCCC2,4.72
17,O=C(Nc1nc2cccnc2s1)c1cccnc1,> 50
18,O=C(Nc1cccs1)c1cccnc1 [drawing 72],> 50
19,O=C(Nc1nc2ccccc2s1)c1cccnc1 [drawing 105],> 50
20,O=C(Nc1nc2ccccc2s1)c1cccnc1 [drawing 111],> 50
